A short description of series [1]: Phase I clinical trial Part A: pharmacokinetics. In kind it is in vivo. Conditions: human; for half-life: read-out: T1/2 (mean ± SD, hr) (converted). On the procedure: (§1) • Collect blood (3 mL recommended) onto wet ice (K2EDTA tubes) • Immediately cool blood on crushed wet ice for maximum of 30 minutes • Harvest plasma as quickly as possible using refrigerated centrifuge by centrifuging at 2000 g for 10 minutes at 4° C. • Keep plasma on wet ice and immediately stabilise with 1:1 (v/v) addition of Water: Orthophosphoric Acid (100:2 v/v) prepared using ≥85% orthophosphoric acid and deionised water (e.g. 750 μL plasma+750 μL stabiliser). • Mix sample thoroughly. • Keep the stabilised plasma on wet ice during subsequent steps. • Divide the stabilised plasma into 5×250 μL aliquots in plastic cryotubes. • Store aliquots at nominal −70° C./−80° C. promptly.
(§2) • 1. Thaw frozen calibration standards, QC samples, blank matrix and study samples on wet ice. • 2. Vortex-mix all samples thoroughly. • 3. On wet ice aliquot 150 μL of calibration standards, QC samples, study samples, and blanks into a 2 mL 96-well plate. For the reagent blank add the same volume of Water. • 4. On wet ice add 25 μL of Methanol:Water (50:50) to wells containing blanks and the same volume of ISTD intermediate solution to all other wells. • 5. On wet ice add 125 μL of Water to each well. Cap plate and vortex-mix (˜5 minutes, 1000 rpm). • 6. Centrifuge plate (˜3000 g, 3 minutes, room temperature). • 7. Condition SPE plate (Waters Oasis HLB pElution) with 250 μL Methanol. • 8. Condition SPE plate with 250 μL of Water. • 9. Load 250 μL of the sample onto the SPE plate (aspirate from the rim of the cone to avoid any debris collected at the bottom of the well). Pass through using minimum pressure. • 10. Wash SPE plate with 250 μL of Water. • 11. Wash SPE plate with 250 μL of Methanol:Water (5:95). Briefly increase pressure for one minute to ensure sorbent is partially dried. • 12. Elute from SPE plate into a 1.2 mL 96-well plate using 30 μL of Methanol. Stand for one minute then pass through using absolute minimum pressure. • 13. Elute again with another 30 μL of Methanol, collecting into the same plate. Briefly increase pressure for one minute to complete the elution. • 14. Add 125 μL of Ammonium Formate 10 mM (aq):Formic Acid (100:0.3) to each well. Cap plate and vortex mix (˜1 minute, ≥1200 rpm). • 15. Store plate refrigerated prior to analysis.
Subjects received 800 mg NMD670.

Series [2] has as its system EAMG rats. Description: 14-day dosing in EAMG animals: grip strength. Format: in vivo, rat. On the procedure:
To induce EAMG, 250 μL of emulsion of Complete Freund's Adjuvant, consisting of heat-inactivated Mycobacterium tuberculosis H37Ra in non-metabolizable oils, together with Phosphate-Buffered Saline (PBS) and 80 μg of the extracellular α-domain peptide fragment of the human nicotinic acetylcholine receptor (antigen) was injected subcutaneously in seven-week-old, anaesthetized Lewis rats. The disease-inducing antigen was supplied by the Hellenic Pasteur institute3. The emulsion was deposited at the tail base, left hindleg, and right foreleg. After injection, animals were allowed to recover and returned to their home cage maintained in ventilated racks under controlled temperature (20 to 22° C.) and humidity (˜55%) control, under a 12-h light/12-h dark cycle with food and water provided ad libitum. The animals had pathogen free status and the housing and changing system was designed to assure that the pathogen free status was preserved during the study. The EAMG rats were observed, weighed, and scored for MG symptoms weekly until symptoms of MG developed, whereafter animals were observed daily.
Sixteen (16) rats with an EAMG clinical score of 2 were allocated to the study and stratified to one of the two treatment groups (vehicle vs NMD670, 8 rats per group). Stratification was based on rotarod endurance and grip strength performance with the aim to obtain similar average starting points for the two groups. Grip strength and Rotarod performance were measured prior to treatment (day 0) and on days 1, 4, 7, 9, 11 and 14 during treatment. The treatment was administered by per oral gavage. Dosing was twice daily with 20 mg/kg NMD670 or vehicle (sterile water) for 14 days unless the rat was subjected to premature termination due to reaching humane endpoints. The dose solutions for the treatment groups were blinded. Thus, experimenters and subsequent analysis were blinded as to which group received CIC-1 inhibitor and which group received vehicle. Full analysis of data and statistics were concluded before unblinding the data. Plasma samples were obtained on days 0, 1 and 14, with muscle samples obtained on day 14 at termination.
Grip strength was measured on a BIOSEB BIO-GT3 Grip strength meter (force transducer, S/N 180271). The rat was handled to allow all four paws to grab the mesh on the grip meter and the rat was then pulled 5 times by the base of the tail in the opposite direction of its body orientation, i.e. towards the operator and away from the grip meter. Care was taken to ensure that the force recorded reflected the grip strength of the rat and not the force of the pulls conducted by the operator. There was minimal pause between the 5 repeated pulls with recordings being separated only by the time of handling the rat (few seconds). Measurements were considered invalid if the rat let go with one or more limbs before the pull was initiated. Average values of the 5 pulls per test occasion were used for further data processing.

The nature of series [3]: Phase IIA clinical trial (Part C): pharmacokinetics in patients. Format: in vivo. Conditions: both sexes, human, plasma; for AUC(0-inf): read-out: AUC0-infinity (Mean ± SD, h · ng/mL); for Cmax: read-out: Cmax (Mean ± SD, ng/mL); for half-life: read-out: T1/2 (median, hr) (converted); for Tmax: read-out: Tmax (median, hr). As to the method:
as §1, §2
For each subject, the study consisted of three study periods during which subjects received either a single dose of NMD670 400 mg, NMD670 1200 mg, or placebo with a 7-day washout period between visits. On these study visits, subjects were asked to refrain from their regular dose of pyridostigmine (if applicable) from 14 h before dosing until after the last pharmacodynamic measurement on Day 1 (see Table 13: Visit and Assessment Schedule). The cross-over design allowed intra-individual comparison of drug effects versus placebo (see FIG. 16). A balanced design was applied to control for first-order carry-over effects.
Part C was a double-blinded, placebo-controlled, three-way cross-over comparison of two single oral doses of NMD670 in men and women with stable symptomatic myasthenia gravis. 12 patients were enrolled. For each subject, the study consisted of three study periods during which subjects received either a single dose of NMD670 or placebo. On these study visits, subjects were asked to refrain from their regular dose of pyridostigmine (if applicable) for 14 hours before dosing. Single doses were administered in randomized order (400 mg free acid, 1200 mg free acid, or placebo p.o.), with a 7-day washout period between visits (FIG. 16). NMD670/placebo was administered with 240 ml of still water.

Where two headings read alike, the source gives them in different places.

As for `C[C@H](Oc1ccc(Br)cc1-c1ccon1)C(=O)O` [NMD670, (2S)-2-[4-bromo-2-(1,2-oxazol-3-yl)phenoxy]propanoic acid], the AUC(0-inf) turned out to be 256 ± 56.2 µg·h/mL in series [1] (female, plasma, po, 800 mg, 800 mg (female), single oral dose, read-out: AUC0-infinity (Mean ± SD, h · ng/mL)); 93.7 µg·h/mL in series [3] (400 mg single oral dose); 378 µg·h/mL in series [3] (1200 mg single oral dose). Also, the half-life in series [1] (female, plasma, po, 800 mg, 800 mg (female), single oral dose) is 5.55 ± 0.55 h; in series [1] (male, plasma, po, 800 mg, 800 mg fasted (male), single oral dose), 5.39 ± 0.82 h; in series [1] (male, plasma, po, 800 mg, 800 mg fed (male), single oral dose), 5.02 ± 1.04 h; in series [3] (400 mg single oral dose), 5.43 h; in series [3] (1200 mg single oral dose), 5.06 h. Moreover, in series [1] (phase 1 FIH study), the “Linearity of PK parameters” value is “approximately linear and predictable”. The “Grip strength over vehicle group throughout the period of treatment” value in series [2] (14-day chronic dosing, 20 mg/kg twice daily) is reported as “increased grip strength”. Besides, the “Grip strength relative to bodyweight” value in series [2] (day 0 (prior to treatment), 20 mg/kg twice daily per oral, P > 0.9999 vs vehicle) is given as 4.8 ± 0.17; in series [2] (day 1, 20 mg/kg twice daily per oral, P = 0.1225 vs vehicle), 5.5 ± 0.46; in series [2] (day 4, 20 mg/kg twice daily per oral, P = 0.0629 vs vehicle) it was 5.4 ± .038; in series [2] (day 7, 20 mg/kg twice daily per oral, P = 0.7266 vs vehicle) it was 4.9 ± 0.26; in series [2] (day 9, 20 mg/kg twice daily per oral, P = 0.2100 vs vehicle) it was 5.0 ± 0.27; in series [2] (day 11, 20 mg/kg twice daily per oral, P = 0.0206 vs vehicle) it was 5.4 ± 0.41. Besides, the “Grip strength relative to bodyweight” value in series [2] (day 14, 20 mg/kg twice daily per oral, P = 0.1010 vs vehicle) turned out to be 5.1 ± 0.47. Moreover, the figures for the Cmax in series [3] (400 mg single oral dose) and in series [3] (1200 mg single oral dose) were 21700 ng/mL and 76700 ng/mL, respectively. For the same compound, the time to peak (Tmax) in series [3] (400 mg single oral dose) and in series [3] (1200 mg single oral dose) was 2 h each time.

The values above are taken from patent publication US20260102377A1, “COMPOSITIONS AND METHODS FOR TREATING MYASTHENIA GRAVIS” (priority 2022, published 2026).
